Structures are written as SMILES.

Data set [1] relates to Mycosphaerella graminicola; anamorph: Septoria tritici; Bayer code SEPTTR. Briefly: Fungicidal activity against leaf blotch of wheat, one-day protectant (1 DP). Type of data set: in vivo. The conditions noted are these: Zymoseptoria tritici, 24 h, wheat plants (variety Yuma), rating of % disease control. The protocol:
(§1) Evaluation of Fungicidal Activity: Leaf Blotch of Wheat (Mycosphaerella graminicola; anamorph: Septoria tritici; Bayer code […]) Wheat plants (variety Yuma) were grown from seed in a greenhouse in 50% mineral soil/50% soil-less Metro mix until the first leaf was fully emerged, with 7-10 seedlings per pot. These plants were inoculated with an aqueous spore suspension of Septoria tritici either prior to or after fungicide treatments. After inoculation the plants were kept in 100% relative humidity (one day in a dark dew chamber followed by two days in a lighted dew chamber) to permit spores to germinate and infect the leaf. The plants were then transferred to a greenhouse for disease to develop. The following table presents the activity of typical compounds of the present disclosure when evaluated in these experiments. The effectiveness of the test compounds in controlling disease was determined by assessing the severity of disease on treated plants, and then converting the severity to percent control based on the level of disease on untreated, inoculated plants. • In each case of Table II the rating scale is as follows: […]

Data set [2] has the same test system. Briefly: Fungicidal activity against leaf blotch of wheat, three-day curative (3 DC). The data set is classed as in vivo. The conditions noted are these: Zymoseptoria tritici, 72 h, wheat plants (variety Yuma), rating of % disease control. As to the method: as §1

On to `CCn1c(=N)c(F)cn(S(=O)(=O)c2ccc(OC)cc2)c1=O` [Compound 8], for which the melting point (in general, the temperature of the solid-liquid transition) was in the range of 107 to 111 °C. The pest or weed control – broadly, how far the test organism was held down – at 100 ppm in data set [1] lay within 0 to 25%. Further, in data set [2], the pest or weed control at 100 ppm lay within 51 to 75%.

In turn, `Cn1c(=N)c(F)cn(S(=O)(=O)c2ccccc2)c1=O` [Compound 1, 1-Benzenesulfonyl-5-fluoro-4-imino-3-methyl-3,4-dihydro-1H-pyrimidin-2-one] gave a melting point of 144 °C. This compound registered a pest or weed control at 100 ppm in data set [1] of 76 to 100%. This compound also gave a pest or weed control at 100 ppm in data set [2] of 76 to 100%.

Regarding `CCn1c(=N)c(F)cn(S(=O)(=O)c2ccccc2)c1=O` [Compound 6, 1-benzenesulfonyl-5-fluoro-4-imino-3-ethyl-3,4-dihydro-1H-pyrimidin-2-one], the melting point was 163 to 166 °C. This compound also gave a pest or weed control at 100 ppm in data set [1] of 0 to 25%. The compound further yielded a pest or weed control at 100 ppm in data set [2] of 0 to 25%.

Turning to `CCn1c(=N)c(F)cn(S(=O)(=O)c2ccc(Cl)cc2)c1=O` [Compound 7], the melting point lay in the range of 165 to 168 °C. In data set [1], this compound came in with a pest or weed control at 100 ppm of 51 to 75%. In data set [2], this compound gave a pest or weed control at 100 ppm of 76 to 100%.

`COc1ccc(S(=O)(=O)n2cc(F)c(=N)n(Cc3ccccc3)c2=O)cc1` [Compound 5, 3-benzyl-5-fluoro-4-imino-1-(4-methoxyphenylsulfonyl)-3,4-dihydropyrimidin-2(1H)-one]: the pest or weed control at 100 ppm in data set [1] and in data set [2] was 0 to 25% each time.

As for `COc1ccc(S(=O)(=O)n2cc(F)c(=N)n(C)c2=O)cc1` [Compound 3], the melting point was in the range of 158 to 162 °C. Further, in data set [1], the pest or weed control at 100 ppm fell in the range of 76 to 100%. In data set [2], this compound yielded a pest or weed control at 100 ppm of 76 to 100%.

In turn, `CCn1c(=N)c(F)cn(S(=O)(=O)c2c(Cl)cccc2Cl)c1=O` [Compound 9] displayed a melting point of 182 to 185 °C. For the same compound, the pest or weed control at 100 ppm in data set [1] was 0 to 25%. The pest or weed control at 100 ppm in data set [2] fell in the range of 76 to 100%.

For `Cn1c(=N)c(F)cn(S(=O)(=O)c2cccs2)c1=O` [Compound 2], the melting point lay within 136 to 139 °C. The compound also gave a pest or weed control at 100 ppm in data set [1] of 76 to 100%. In addition, the pest or weed control at 100 ppm in data set [2] lay within 76 to 100%.

Compound `Cn1c(=N)c(F)cn(S(=O)(=O)c2ccc(Cl)cc2)c1=O` [Compound 4] returned a melting point of 147 to 150 °C. The same compound returned a pest or weed control at 100 ppm in data set [1] of 76 to 100%. In addition, the pest or weed control at 100 ppm in data set [2] was in the range of 76 to 100%.
